In patent US10597388B2, “Pyridazinone herbicides” (FMC CORPORATION, priority 2014, dated 2020):

Key:
Test in all cases: Test C greenhouse herbicide test, pre- and postemergence
Format in all cases: in vivo
[1] = system: lambsquarters (Chenopodium album)
Outline: (§1)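 Two application timings: at sowing into a soil/sand blend, and on 2–18 cm seedlings in peat-vermiculite potting mix. A non-phytotoxic, surfactant-containing solvent carried the compounds. Plants were compared with controls and rated visually on 0–100 after 13–15 d.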

[2] = system: ragweed (common ragweed, Ambrosia elatior)
Outline: as §1

[3] = system: galium (catchweed bedstraw, Galium aparine)
Outline: as §1

soybean (Glycine max) = system: soybean (Glycine max)
Outline: as §1

[4] = system: johnsongrass (Sorghum halepense)
Outline: as §1

[5] = system: barnyardgrass (Echinochloa crus-galli)
Outline: as §1

[6] = system: nutsedge, yellow (yellow nutsedge, Cyperus esculentus)
Outline: as §1

[7] = system: oilseed rape (Brassica napus)
Outline: as §1

[8] = system: foxtail, giant (giant foxtail, Setaria faberii)
Outline: as §1

[9] = system: waterhemp (common waterhemp, Amaranthus rudis)
Outline: as §1

[10] = system: crabgrass, large (large crabgrass, Digitaria sanguinalis)
Outline: as §1

[11] = system: wheat (winter wheat, Triticum aestivum)
Outline: as §1

[12] = Postemergence, 31 g ai/ha, 0 to 100 scale (0 no effect, 100 complete control)
[13] = Postemergence, 125 g ai/ha, scale 0 to 100, 0 is no effect, 100 is complete control
[14] = Postemergence, 250 g ai/ha, scale 0 to 100, 0 no effect, 100 complete control, 13 to 15 d
[15] = Preemergence, 31 g ai/ha, scale 0 to 100, 0 is no effect, 100 is complete control
[16] = Preemergence, 62 g ai/ha, scale 0 to 100, 0 is no effect, 100 is complete control
[17] = Preemergence, 125 g ai/ha, scale 0 to 100, 0 is no effect, 100 is complete control
[18] = Preemergence, 250 g ai/ha, scale 0 to 100, 0 no effect, 100 complete control
[19] = postemergence, 62 g ai/ha, scale 0 to 100, 0 no effect, 100 complete control

Cc1nn(C)c(=O)c(-c2cccc3ccccc23)c1O [Compound 11, 5-hydroxy-2,6-dimethyl-4-(1-naphthalenyl)-3(2H)-pyridazinone]
35: Plant response rating, Foxtail, Giant [8, 16]
45: Plant response rating, Nutsedge, Yellow [6, 14]
50: Plant response rating, Ragweed [2, 16] | Plant response rating, Foxtail, Giant [8, 17]
95: Plant response rating, Ragweed [2, 13] | Plant response rating, Ragweed [2, 14] | Galium plant response rating [3, 18] | Plant response rating, Waterhemp [9, 13] | Plant response rating, Waterhemp [9, 14]
0: Ragweed plant response rating [2, 12] | Soybean plant response rating (soybean (Glycine max); [12]) | Plant response rating, Soybean (soybean (Glycine max); [13]) | Plant response rating, Soybean (soybean (Glycine max); [14]) | Plant response rating, Soybean (soybean (Glycine max); [16]) | Plant response rating, Soybean (soybean (Glycine max); [17]) | Soybean plant response rating (soybean (Glycine max); [18]) | Soybean plant response rating (soybean (Glycine max); [19]) | Johnsongrass plant response rating [4, 12] | Plant response rating, Johnsongrass [4, 15] | Plant response rating, Johnsongrass [4, 16] | Plant response rating, Johnsongrass [4, 17] | Johnsongrass plant response rating [4, 18] | Johnsongrass plant response rating [4, 19] | Barnyardgrass plant response rating [5, 12] | Plant response rating, Barnyardgrass [5, 15] | Plant response rating, Barnyardgrass [5, 16] | Barnyardgrass plant response rating [5, 19] | Plant response rating, Nutsedge, Yellow [6, 15] | Oilseed Rape plant response rating [7, 12] | Plant response rating, Oilseed Rape [7, 13] | Plant response rating, Oilseed Rape [7, 14] | Plant response rating, Oilseed Rape [7, 15] | Plant response rating, Oilseed Rape [7, 16] | Plant response rating, Oilseed Rape [7, 17] | Oilseed Rape plant response rating [7, 18] | Oilseed Rape plant response rating [7, 19] | Plant response rating, Foxtail, Giant [8, 15] | Crabgrass, Large plant response rating [10, 12] | Plant response rating, Crabgrass, Large [10, 13] | Plant response rating, Crabgrass, Large [10, 15] | Plant response rating, Crabgrass, Large [10, 16] | Crabgrass, Large plant response rating [10, 19] | Wheat plant response rating [11, 12] | Plant response rating, Wheat [11, 16] | Plant response rating, Wheat [11, 17] | Wheat plant response rating [11, 19]
90: Plant response rating, Lambsquarters [1, 13] | Plant response rating, Lambsquarters [1, 14] | Lambsquarters plant response rating [1, 19] | Ragweed plant response rating [2, 18] | Plant response rating, Galium [3, 13] | Plant response rating, Galium [3, 14] | Plant response rating, Galium [3, 16] | Plant response rating, Galium [3, 17] | Galium plant response rating [3, 19] | Foxtail, Giant plant response rating [8, 18]
15: Plant response rating, Ragweed [2, 15] | Plant response rating, Barnyardgrass [5, 14] | Nutsedge, Yellow plant response rating [6, 19]
30: Plant response rating, Nutsedge, Yellow [6, 13] | Nutsedge, Yellow plant response rating [6, 18] | Plant response rating, Foxtail, Giant [8, 14]
100: Plant response rating, Lambsquarters [1, 16] | Plant response rating, Lambsquarters [1, 17] | Lambsquarters plant response rating [1, 18] | Plant response rating, Waterhemp [9, 16] | Plant response rating, Waterhemp [9, 17] | Waterhemp plant response rating [9, 18]
75: Galium plant response rating [3, 12]
10: Plant response rating, Barnyardgrass [5, 17] | Plant response rating, Nutsedge, Yellow [6, 17] | Plant response rating, Foxtail, Giant [8, 13] | Plant response rating, Crabgrass, Large [10, 14] | Wheat plant response rating [11, 18]
70: Plant response rating, Lambsquarters [1, 15]
40: Ragweed plant response rating [2, 19] | Plant response rating, Crabgrass, Large [10, 17] | Crabgrass, Large plant response rating [10, 18]
5: Plant response rating, Johnsongrass [4, 13] | Plant response rating, Johnsongrass [4, 14] | Plant response rating, Barnyardgrass [5, 13] | Nutsedge, Yellow plant response rating [6, 12] | Plant response rating, Nutsedge, Yellow [6, 16] | Foxtail, Giant plant response rating [8, 12] | Foxtail, Giant plant response rating [8, 19] | Plant response rating, Wheat [11, 13] | Plant response rating, Wheat [11, 14]
80: Lambsquarters plant response rating [1, 12] | Plant response rating, Ragweed [2, 17] | Barnyardgrass plant response rating [5, 18] | Waterhemp plant response rating [9, 12] | Waterhemp plant response rating [9, 19]
85: Plant response rating, Galium [3, 15]
